Data on 52 compounds can be found in PubChem BioAssay AID1996.

Values after ≈ are worked out from the molar mass of the structure shown.

Usually solubility (kinetic) stands for solubility judged after dilution from a stock solution rather than from solid.

The conditions of the data set: buffer; pH 7.4; 200.0 µM.
`Cc1ccsc1C(=O)N1CCN(C(=O)c2ccco2)CC1` had a solubility (kinetic) above 45.7 µg/mL. Consider `CCOC(=O)C1=C(C)NC(=O)NC1/C=C\c1ccccc1` (configuration not stated), for which the kinetic solubility worked out at 1.3 µg/mL (≈ 4.54 µM).

`CCc1onc(C)c1C(=O)O` registered a kinetic solubility above 23.3 µg/mL.

`COc1ccccc1C1C([N+](=O)[O-])=C(N)Oc2c1c(=O)oc1ccccc21` (configuration not stated) had a solubility (kinetic) of 2.2 µg/mL (≈ 6.01 µM). Compound `CCCCN(C)C(=O)c1nc2ccccn2c1CN1CCSCC1` registered a solubility (kinetic) of 48.3 µg/mL (≈ 139 µM). As for `NC(=S)Nc1cccc(-c2n[nH]c(=S)o2)c1`, the solubility (kinetic) is above 37.8 µg/mL.

Regarding `COc1ccc2[nH]c(C(=O)Nc3ccccc3Cl)cc2c1`, the solubility (kinetic) is below 0.3 µg/mL. Turning to `Cc1cc(=O)oc2cc(N3C(=O)CC(Cc4ccccc4)C3=O)ccc12` (configuration not stated), the kinetic solubility stood at 8.3 µg/mL (≈ 23.9 µM).

For `CCOc1cc2c3c(c1)C(C)=CC(C)(C)N3C(=O)C2=O`, the kinetic solubility is below 0.6 µg/mL.

`Clc1cccc(CN2CCCCCC2)c1`: the solubility (kinetic) was found to be 14.3 µg/mL (≈ 63.9 µM).

For the compound `CC1(C)CC(=O)C=C(Nc2cccc(C(F)(F)F)c2)C1`, the solubility (kinetic) turned out to be 24 µg/mL (≈ 84.7 µM). With `COc1cc(NC(=O)c2cc(C)no2)cc(OC)c1OC`, the solubility (kinetic) is above 43.8 µg/mL. In the case of `CCOC(=O)CNC(=O)C1COc2ccccc2O1` (configuration not stated), the kinetic solubility is above 39.8 µg/mL. In the case of `Cc1ccccc1Nc1ncnc(N)n1` it was above 30.2 µg/mL; in that of `O=C(c1ccco1)c1cn(CC(=O)N2CCCCCC2)c2ccccc12`, 1.4 µg/mL (≈ 4 µM). The compound `CC1Cc2ccccc2N1Cc1cccc(S(=O)(=O)N(C)C)c1` (configuration not stated) yielded a kinetic solubility of 9.4 µg/mL (≈ 28.4 µM). For the compound `CN1CCC(OC(=O)COc2ccc(F)cc2)CC1.Cl`, the solubility (kinetic) was above 45.6 µg/mL. `COCC(C)NC(=O)c1cc2cc(OC)ccc2[nH]1` (configuration not stated) registered a solubility (kinetic) of 29.7 µg/mL (≈ 113 µM). Regarding `CCCCNC(=O)c1cc2c(=O)n(CC)c3ccccc3c2s1`, the kinetic solubility is below 0.4 µg/mL. `CN1C(=O)C2(OCC(CO)([N+](=O)[O-])CO2)c2ccccc21` (configuration not stated) gave a solubility (kinetic) above 44.1 µg/mL.

`CC1CN(c2ccc([N+](=O)[O-])cn2)CC(C)O1` (configuration not stated) came in with a kinetic solubility above 35.6 µg/mL. With `C/C(=C/c1ccccc1)C(=O)N1CCN(c2ccccc2)CC1`, the solubility (kinetic) amounted to 37.1 µg/mL (≈ 121 µM). In turn, `COc1ccc(CC(C)NCCC(c2ccccc2)c2ccccc2)cc1` (configuration not stated) returned a kinetic solubility of 47.1 µg/mL (≈ 131 µM). `COc1ccc(-c2cc(C(=O)N3CCOCC3)no2)cc1` came in with a kinetic solubility above 43.2 µg/mL.

Consider `CC(=O)c1sc2nsc(SCCN3CCCC3)c2c1N`, for which the solubility (kinetic) stood at 46.7 µg/mL (≈ 143 µM). In turn, `CCN1CCN(S(=O)(=O)c2c(C)cc(C)cc2C)CC1` yielded a solubility (kinetic) above 44.5 µg/mL. `Cc1ccc(-c2nc3ccccc3[nH]2)cn1` gave a solubility (kinetic) of 29.5 µg/mL (≈ 141 µM).

With `CC1CC(C)CN(CC(=O)N2CCOCC2)C1.Cl` (configuration not stated), the kinetic solubility is above 41.5 µg/mL. In turn, `CC1CCCCN1S(=O)(=O)c1ccc(C(=O)N2CCOCC2)cc1` (configuration not stated) came in with a kinetic solubility above 52.9 µg/mL.

As to `O=C(CCCN1C(=O)c2ccccc2C1=O)NCc1ccc(F)cc1`, the solubility (kinetic) came out at 47.8 µg/mL (≈ 140 µM).

Take `Cc1cc(=O)[nH]c2c3ccccc3nn12`: the solubility (kinetic) is above 29.9 µg/mL. In the case of `NC(=S)Nc1ccc(C(F)(F)F)cc1Cl` it was 33.5 µg/mL (≈ 132 µM); in that of `CC(=O)c1cccc(NC(=O)N2CC(C)OC(C)C2)c1` (configuration not stated), above 41.5 µg/mL; in that of `O=C(Nc1ccc2c(c1)OCCO2)c1ccccc1`, above 38.3 µg/mL.

`Cc1cc(C)c2cc(C(=O)N3CCc4ccccc4C3)[nH]c2c1`: the solubility (kinetic) stood at 0.5 µg/mL (≈ 1.64 µM). On to `COc1ccc(CCC(=O)OCC(=O)Nc2sccc2C(N)=O)cc1OC`, for which the kinetic solubility was 21 µg/mL (≈ 53.5 µM). Take `CCCCCCn1c(=O)[nH]c2c(c1=O)CCC2`: the kinetic solubility was above 35.4 µg/mL. `Cc1cc(Cl)ccc1OCC(=O)Nc1ccc(CN2CCOCC2)cc1` came in with a solubility (kinetic) of 41.3 µg/mL (≈ 110 µM).

Consider `COc1cccc(-c2nc(NC3CCCC3)c3ccccc3n2)c1O`, for which the solubility (kinetic) was below 0.2 µg/mL. Consider `C=CCN1C(=O)c2ccccc2NC1c1cc(Br)cs1` (configuration not stated), for which the solubility (kinetic) was 41.1 µg/mL (≈ 118 µM).

Turning to `O=C(CCCOc1ccc(Cl)cc1)NCCc1ccccc1`, the solubility (kinetic) came to 1.5 µg/mL (≈ 4.72 µM). Next, `Cl.OC12CC3C[C@H](C1)C(N1CCOCC1)[C@@H](C3)C2` (some centres not stated): 36.8 µg/mL; `Cc1ccc(SCc2cn3c(C)cc(C)nc3n2)cc1`: above 42.5 µg/mL; `COc1ccc(C(=O)Nc2ccc(C3CC3(Cl)Cl)cc2)cc1` (configuration not stated): below 0.7 µg/mL. As to `O=C1COCC(=O)N1CCc1c[nH]c2ccccc12`, the kinetic solubility was above 38.7 µg/mL. In the case of `Cc1cc(/C(N)=N/OC(=O)c2cccc(Cl)c2)no1`, the solubility (kinetic) was determined as 2.2 µg/mL (≈ 7.87 µM). Compound `CC(C)c1ccc(CNC(=O)C(=O)NCC2CCCO2)cc1` (configuration not stated) had a solubility (kinetic) of 28.5 µg/mL (≈ 93.6 µM). `O=C(CNC(=O)c1ccc(C(F)(F)F)cc1)NC1CC1`: the solubility (kinetic) was above 42.9 µg/mL. The compound `C/C(=N\NC(=O)c1cc(C)nc2ccccc12)c1ccccn1` displayed a solubility (kinetic) above 45.7 µg/mL. Take `CCCNc1nc(Cl)nc(Nc2ccc(Cl)cc2)n1`: the solubility (kinetic) came to 1.1 µg/mL (≈ 3.69 µM). `CCC(Oc1ccccc1)C(=O)NC1CCCCCC1` (configuration not stated) showed a solubility (kinetic) of 28.3 µg/mL (≈ 103 µM). In the case of `O=C(O)CN1C(=O)C2(OCCO2)c2cc(Br)ccc21` it was above 49.2 µg/mL.
